Source: patent US10357577B2, “Bacterial nitroreductase enzymes and methods relating thereto” (AUCKLAND UNISERVICES LIMITED, priority 2010, dated 2019)

Assays:
[1] = test system: HCT116 cells expressing E. coli NfsA; format: cell-based, human; settings: 18 hrs exposure, 5 days regrowth; IC50 of WT versus NTR-expressing cells
Experimental: FIGS. 10 (B) and 10 (C) illustrates the results of evaluation of 2-nitroimidazole clinical imaging candidates with E. coli and non-E. coli NTRs. Stably-expressing cells were treated with varying concentration of 2-nitroimidazole prodrugs diluted in αMEM+5% FCS+P/S. Cells were exposed to prodrug for 18 hrs, washed and left to regrow for 5 days. IC50 was determined as the concentration of prodrug required to inhibit cell growth by 50% of untreated controls. IC50 values are mean for ≥2 independent experiments. WT:NTR ratio-ratio of IC50 means from WT cells versus NTR-expressing cell lines.
FIG. 21 illustrates antiproliferative activity (IC50 value) of prodrug candidates with E. coli and non-E. coli nitroreductases. Stably-expressing cells were treated with varying concentration of prodrug diluted in αMEM+5% FCS+P/S. Cells were exposed to prodrug for 18 hrs, washed and left to regrow for 5 days. IC50 was determined as the concentration of prodrug required to inhibit cell growth by 50% of untreated controls. IC50 values are mean for ≥2 independent experiments. WT:NTR ratio-interexperimental ratio of IC50 means from WT cells versus NTR-expressing cell lines.
Isolated NTR gene sequences were subject to PCR and introduced in the bicistronic plasmid F579 via Gateway cloning (Invitrogen) as described by Prosser et al. (2010, Biochem Pharmacol, 79, 678-687). Stably transfected cell lines were created by transfection of the relevant plasmid using FuGENE 6 Transfection Reagent (Roche). Transfected cell populations were maintained by passage in puromycin
Cells were passaged in alpha-Minimal Essential Media, (αMEM; Gibco) supplemented with 5% FBS, (GIBCO NZ) without antibiotics. Cell were passaged for <3 months from frozen stocks and confirmed Mycoplasma free (PCR-ELISA; Roche Diagnostics). Cells were aliquoted into the 96-well plate (100 μL/well) and cells were left to attach (≥4 hrs). […] Plates were read on an ELx 808 Absorbance Microplate Reader (Bio-Tek Instruments). Absorbance was measured at 490 nm and 450 nm (final absorbance 490-450). […]

[2] = test system: nfsA-expressing cells in mixed HCT116 xenografts; experiment: Immunohistochemical detection of EF5 binding in tumour xenograft sections; format: in vivo, mice; settings: constant exposure time 0.5 s
Experimental: FIG. 16 (A) illustrates immunohistochemical detection of EF5 binding in human tumour xenografts harbouring 0%, 3%, 12% or 20% HCT-116^nfsA expressing cells. FIG. 16 (A) further illustrates Fluorescent microscope pictures of tumour sections, and FIG. 16 (B) illustrates flow cytometry histograms of EF5/CY5 fluorescence to confirm % NfsA expressing cells of individual tumour.
In vivo: mice were treated with 60 mg/kg EF5 (ip) and left for 24 hrs. Tumour tissue was excised, fixed in 10% formalin dissolved in PBS (48 h), transferred to 70% ethanol and embedded in paraffin. Sections (5 μm) were cut, mounted onto poly-L-lysine coated glass slides and heat fixed for 1 h at 60° C. Sections were dewaxed, rehydrated, washed in Milli-Q water and then rinsed in 0.01 M Tris buffered saline (TBS, pH 7.4). Antigen retrieval was achieved by boiling samples in 10 mM sodium citrate buffer pH 6 for 25 min. Sections were washed with TBS containing 0.1% Tween-20 (TBS-T) and blocked with 1% mouse serum in TBS. After rinsing, the samples were incubated for 2 hr at room temperature with 100 μg/ml anti-EF5 (Alexa-488) primary antibody diluted in PBS containing 0.2% Tween-20. After rinsing in with TBS-T the coverslips were mounted with Prolong Gold antifade (Invitrogen) and sealed with nail varnish. […] Images were analysed and overlaid using Adobe Photoshop software (Adobe Photoshop 4.0).

O=C(Cn1ccnc1[N+](=O)[O-])NCC(F)(F)C(F)(F)F [EF5, 2-(2-nitro-1H-imidazol-1-yl)-N-(2,2,3,3,3-pentafluoropropyl)acetamide]
WT:NTR ratio (maximum growth inhibitory effect) [1]: 1600 fold
EF5 retention versus hypoxic activation in HCT-116 parental cells (in words) [2]: clearly superior
